Values joined by “and” are separate entries in the source; they are usually repeats but may differ in a detail not shown here. Equal entries are not always repeated.
Experiments:
CCL-119 cells [1] = test: Mode of cell death, Annexin V-FITC/PI staining (flow cytometry); type: cell-based; details: 24 hours at IC50; single replicates n1-n3
Procedure: The mode of cell death can be observed through the Annexin V-FITC/PI staining (BD, USA). The result of this test is either apoptosis or necrosis. […] VCR was used as a positive control, while cells without any treatment were used as a negative control. Then, the plate was incubated for 24 hours. After the incubation, the cell suspension in each well was collected into different Eppendorf tubes. The tubes were then centrifuged for 5 minutes at 1500 rpm at 4°C. After the centrifuge, the supernatant in the tubes was removed, and the cell pellets were washed twice with cold PBS. Then, centrifuge the tubes again and remove the supernatant. Next, 100 µL of Annexin V binding buffer was resuspended in each tube, and 5 µL Annexin V-FITC was pipetted into the tube to stain the cells for 15 minutes at room temperature, dark. After that, 5 µL of propidium iodide was piped into the tube for 5 minutes. The staining process is done in dark conditions. Lastly, the sample was transferred into the Falcon tube, and each tube was resuspended in 400 µL of Annexin V binding buffer. The sample was analyzed using a flow cytometer (BD FACS Canto II) within one hour.

CCL-119 cells [2] = test: Alkaline comet assay; type: cell-based; details: 1 hour of exposure
Procedure: VCR was used as a positive control, and untreated cells were used as a negative control in this assay. The cells were incubated for 1 hour. After incubation, cells in each well were transferred to the Eppendorf tube to centrifuge for 5 minutes at 4°C by using a refrigerated microcentrifuge. The supernatant was removed, and the samples were washed with 1 mL of cold PBS. This process was repeated 3 times. After completion of the process, the supernatant was removed, and the pellet was left for a while on top of the ice while preparing the slide.
About 140 µL of normal melting agar (NMA) is pipetted on top of the fully frosted slide, and a cover slip is put on the agar for 5 minutes or until the agar fully solidifies. After that, the cover slip was removed, and 80 µL of low melting agar (LMA) was added to an Eppendorf tube containing the pellet of cells. The suspension was then transferred into a frosted slide with NMA agar. The cover slip was then put back on top of the frosted slide for 10 minutes or until dry. Next, the slide was transferred into a Coplin jar that contained lysis buffer solution and Triton X-100. The slides were then incubated at 4°C overnight. The slides were arranged on an electrophoresis tank filled with electrophoresis buffer for 20 minutes. Electrophoresis is done for another 20 minutes at 25 V with 300 mA. The slides were washed with a neutralization buffer solution 3 times at a 5-minute time interval. Finally, 30 µL of ethidium bromide (50 µg/mL) was added, and the slide was observed by using fluorescence microscopy (OLYMPUS BX51TR). CometScore software is used to analyze the DNA damage of the cells. The comet assay was performed under alkaline conditions (pH > 13) to detect both single- and double-strand DNA breaks.

CCL-119 cells [3] = test: Cell cycle analysis (PI/RNase staining); type: cell-based; details: for cells in G0/G1 phase / cells in G2/M phase / cells in S phase: 24 hours at IC50, single replicates n1-n3
Procedure: The cells were cultured and seeded in a 6-well plate at 1 x 10^6 cells/mL. VCR was used as a positive control, and untreated cells were used as a negative control in this assay. The concentration of the compounds and VCR was followed by IC50 values that were taken from the MTT assay.
After 24 hours of incubation, all cells in the plate were transferred to the Eppendorf tube and centrifuged for 5 minutes at 4°C at 1500 rpm. After centrifuging, the supernatant was removed, and cells were washed with 500 µL cold PBS three times. The pellet was fixed by using 70% ethanol overnight at −20°C. Next, the samples were stained with 500 µL of PI/RNase staining buffer and incubated for 15 minutes. The samples were then transferred into Falcon tubes. The data was recorded using a flow cytometer and analyzed using ModFit LT software.

WIL2-NS cells = system: WIL2-NS cells; parameters: method as in Rasli et al. (2023); details: non-cancerous cells; 24 hours of exposure; graph referred to earlier paper; ref Rasli et al. (2023); cited from earlier work
CCL-119 cells [4] = test: MTT cytotoxicity assay; details: 24 hours; for cell viability at 0.31 µM / cell viability at 0.63 µM / cell viability at 1.25 µM / cell viability at 2.50 µM / cell viability at 5.00 µM: single replicates n1-n3, untreated = 100.00; for cell viability at 2.50 µM: 2.5 µM; for Selectivity Index (SI): IC50 WIL2-NS / IC50 CCL-119
Procedure: The T-acute lymphoblastic leukemia cell line, CCRF-CEM (CCL-119™), and a non-cancerous cell, WIL2-NS (CRL-8155™), were purchased from the American Type Culture Collection (ATCC). Both are suspension types of cells and were cultured in Roswell Park Memorial Institute Medium 1640 (RPMI-1640) (Sigma-Aldrich), supplemented with 10% Fetal Bovine Serum (FBS) (Capricorn Scientific) and 1% penicillin-streptomycin (Nacalai Tesque) to obtain the complete growth medium and were incubated at 37 °C with a 5% CO2 incubator. Both suspension cells are used for tests when the cells’ passage becomes passage 3–10 (maximum).
All stock solutions of the organotin (IV) dithiocarbamate compounds were prepared at 10 mM and dissolved in dimethyl sulphoxide (DMSO) (ChemAR®). The stock solutions were stored at 4°C; fresh dilutions were made by adding the RPMI-1640 medium before the experiment. The dilution is carried out using the serial dilution method to obtain the desired concentrations, which are 5 µM, 2.5 µM, 1.25 µM, 0.63 µM, 0.32 µM, and 0.16 µM in this study. Vincristine (VCR) is used as a positive control in this study.
Both CCL-119 and WIL2-NS cells were seeded in a 96-well plate at a final concentration of 5 x 10^5 cells/well and treated with 5 µM, 2.5 µM, 1.25 µM, 0.63 µM, 0.32 µM, and 0.16 µM of organotin (IV) dithiocarbamate compound for 24 hours at 37°C with 5% CO2. VCR was used as a positive control in this study, while cells without treatment were used as a negative control. After 24 hours of exposure, 20 µL of MTT (Merck) salt solution was added into each well and incubated for another 4 hours. The plate was wrapped with aluminium foil as MTT salt is light sensitive. After 4 hours, the purple crystal formazan was formed. All the medium was removed carefully from each well, and 200 µL DMSO was added to each well to dissolve the purple formazan crystal. Then, the plates were incubated for an additional 15 minutes. The results were analyzed and recorded using an ELISA microplate reader at 570 nm. The data was then plotted into a graph, and IC50 values were determined.
The selectivity index (SI) is determined by dividing the cytotoxic activity (IC50 value) of each compound on a non-cancerous cell line (WIL2-NS) by the leukemia cell line (CCL-119). […] WIL2- NS cell lines were selected as the comparator because it is a non-cancerous human B lymphoblast cell line, which is like CCL-119 (T-lymphoblastic leukemia), derived from lymphocytes. This choice ensures that comparisons are made between biologically similar cell types, minimizing variability that could arise from differences in tissue origin or lineage.

Structure (SMILES)	Early Apoptosis (Q4) (CCL-119 cells [1])	Late Apoptosis (Q2) (CCL-119 cells [1])	Necrosis (Q1) (CCL-119 cells [1])	Viable (Q3) (CCL-119 cells [1])	Tail moment (CCL-119 cells [2]; mean ± SEM) [A.U]	percentage of DNA intensity in the tail (CCL-119 cells [2]; mean ± SEM) [%]	% DNA intensity (CCL-119 cells [2]; single replicates n1-n3)	Tail moment (CCL-119 cells [2]; single replicates n1-n3)	cells in G0/G1 phase (CCL-119 cells [3])	cells in G2/M phase (CCL-119 cells [3])	cells in S phase (CCL-119 cells [3])	IC50 (WIL2-NS cells) [µM]	cell viability at 0.31 µM (CCL-119 cells [4])	cell viability at 0.63 µM (CCL-119 cells [4])	cell viability at 1.25 µM (CCL-119 cells [4])	cell viability at 2.50 µM (CCL-119 cells [4])	cell viability at 5.00 µM (CCL-119 cells [4])	Selectivity Index (SI) (CCL-119 cells [4])	Phases of Cell Cycle Arrest (CCL-119 cells [3]; 24 hours at IC50 concentrations)
CC(C)N(C(=S)[S][Sn]([c]1ccccc1)([c]1ccccc1)[c]1ccccc1)C(C)C [ODTC 3, triphenyltin (IV) diisopropyl dithiocarbamate]	35.9% and 47.6% and 15.9%	10.8% and 9% and 12%	0.1% and 0% and 1.5%	53.2% and 43.4% and 70.6%	22.25 ± 0.93	10.79 ± 0.72	9.366% and 11.3439% and 11.6624%	20.8823 A.U and 21.8477 A.U and 24.0274 A.U	9.54% and 24.65% and 21.14%	90.46% and 75.18% and 78.7%	0% and 0.17% and 0.16%	0.75 ± 0.07	47.07% and 58.65% and 40.35%	40.17% and 50.04% and 42.00%	42.27% and 42.45% and 31.66%	35.57% and 24.06% and 25.57%	27.21% and 27.19% and 34.26%	3.13	–
C=CCN(CC=C)C(=S)[S][Sn]([c]1ccccc1)([c]1ccccc1)[c]1ccccc1 [ODTC 4, triphenyltin (IV) diallyl dithiocarbamate]	41.4% and 46.5% and 27%	15.2% and 19.2% and 9.9%	0.2% and 0.1%	43.2% and 34.2% and 63%	25.83 ± 2.60	14.24 ± 0.94	12.9244% and 13.7623% and 16.0541%	29.2637 A.U and 27.4848 A.U and 20.7304 A.U	45.09% and 46.03% and 29.64%	8.07% and 7.1% and 0%	46.84% and 46.87% and 70.36%	0.67 ± 0.14	30.40% and 42.75% and 41.34%	24.51% and 37.25% and 30.23%	26.67% and 22.56% and 24.61%	25.39% and 26.40% and 25.55%	20.16% and 12.33% and 18.27%	4.19	S phase
